Measurements published in PubChem BioAssay AID977606 (Broad Institute, 2014).
Values joined by “and” are separate entries in the source; they are usually repeats but may differ in a detail not shown here. Equal entries are not always repeated. Active and inactive are the calls of the source. The rule behind the calls is not given here.

System: INS-1E Gaussia luciferase insulin secretion, no glucose, luminescence
Assay: insulin secretion activators without glucose, dose response, counter-screen for glucose-dependent insulin secretion activators, cell-based, INS-1E, Gaussia luciferase, luminescence, cherry-pick (AID 977606)

Structure (SMILES)	AC40
CC(C)(C)c1nc2ccc(Cl)cn2c1CC1CCCCC1	13.2 µM
O=C(NCC1OCCc2ccccc21)c1ccc(NC(=O)c2ccc(Cl)cc2)cc1 (centres undefined)	6.61 µM
CCOC(=O)c1ccc(Nc2ncnc3ccc(C)cc23)cc1	11.5 µM
Nc1c(C(=O)Nc2ccc3c(c2)OCCO3)nnn1Cc1ccc(Cl)cc1	10.1 µM
O=c1c2cc(F)ccc2sn1-c1ccccc1Cl	1.35 µM
CNC[C@@H](Cc1ccccc1)NC[C@@H](CC1CCCCC1)NCCCc1ccccc1	13.1 µM
CC(C)(C)c1ccc(-c2cc(-c3ccccc3O)[nH]n2)cc1	5.34 µM
Oc1ccccc1C1SC(c2ccccc2O)SC(c2ccccc2O)S1 (centres undefined)	5.36 µM
O=c1c2ccccc2sn1-c1ccccc1	1.79 µM
CCCCCc1c(Cc2ccccc2)ncn1CCc1ccccc1OC	8.28 µM
O=C(Nc1nnc(-c2ccccc2SCc2ccccc2F)s1)Nc1ccccc1F	12.8 µM
COc1ccc(-n2c(-c3ccc(Cl)cc3)c[nH]c2=S)cc1	17.1 µM
COc1ccc(C#Cc2ccc([C@@H]3[C@H](CO)N4CCCCN(Cc5ccccc5F)C[C@@H]34)cc2)cc1	9.33 µM
O=C1CCc2cc(S(=O)(=O)N3CCN(c4ccc(F)cc4)CC3)cc3c2N1CC3	> 35 µM (inactive)
CN1CCN(C2Cc3ccccc3Sc3cc(C(F)(F)F)ccc32)CC1 (centres undefined)	7.2 µM
COc1ccc(-c2cc3ccccc3oc2=O)cc1NC(=S)NC(=O)c1ccc2c(c1)OCCO2	1.2 µM
O=c1c2ccccc2sn1-c1ccc(F)cc1	2.43 µM
CCC(=O)Nc1ccc(Cl)c(NC(=S)NC(=O)COc2ccc(Cl)cc2)c1	5.38 µM
Fc1cccc(CN2C[C@@H]3N[C@H](C2)[C@@H]3c2ccc(-c3cccc(F)c3)cc2)c1	4.89 µM
Fc1ccccc1/C=N/n1c(C2CCCCC2)n[nH]c1=S	11.8 µM
Cc1nc(NC(=O)c2cccc(-c3cc4ccccc4oc3=O)c2)ccc1Br	7.19 µM
CCCCc1nc(NCCN)c(C#N)c2c1CSC(C)(C)C2	11.6 µM

Structure (SMILES)	AC40
NC(N)=N/N=C/c1ccc(OCc2ccccc2)c(OCc2ccccc2)c1	6.87 µM
Cc1ccc(-c2ccc(C3[C@@H]4CN(Cc5cccc(F)c5)C[C@H]3N4)cc2)cc1 (some centres undefined)	2.14 µM
Cc1ccc(-c2n[nH]c(=S)n2/N=C/c2c(C)nn(-c3ccccc3)c2C)cc1	6.5 µM
O=C(COc1ccccc1)Nc1sc2c(c1C(=O)NCc1cccnc1)CCCC2	6.97 µM
O=C1CC(Sc2nnc(-c3ccccc3)o2)C(=O)N1c1ccccc1 (centres undefined)	9.58 µM
COc1ccc(-c2cccc(C(=O)Nc3ccc(C)cc3)c2)cc1	13.6 µM
NC1=NC[C@H](CC2CCCCC2)N1CCc1cc(C(F)(F)F)cc(C(F)(F)F)c1	9.8 µM
C/C(=N\NC(=O)c1ccc(Cl)c(Cl)c1)c1ccc(Br)s1	7.32 µM
CC(C)(C)c1ccccc1OCC(O)CN1CCN(c2ccccn2)CC1 (centres undefined)	13 µM
COc1ccc(Br)cc1C(=O)Nc1cc(C)cc(C)c1	6.69 µM
C=CCNc1nc(NCc2ccco2)nc(OCC)n1	> 35 µM (inactive)
CCOc1nc(-c2ccccc2)c2cc(Br)ccc2n1	21.9 µM
C[C@@H](NC(=O)C[C@@H]1C[C@@H]2c3cc(NC(=O)Nc4ccccc4F)ccc3O[C@@H]2[C@@H](CO)O1)c1ccccc1	34.3 µM
CCc1ccc(-c2c(C)sc(NC(=O)C3CCC3)c2C#N)cc1	> 35 µM (inactive)
COc1ccc(C(CCNCc2ccc(OC(C)C)cc2)C(C)C)cc1 (centres undefined)	12.3 µM
CCCCc1c(Cc2ccccc2)ncn1CCc1ccccc1OC	9.34 µM
C=CCn1c(=NC(=O)c2cc(Cl)sc2Cl)sc2cc(S(N)(=O)=O)ccc21	4.47 µM
O=C(Nc1ccc2c(c1)OCO2)N1C[C@@H]2N[C@H](C1)C2c1ccc(C=Cc2ccccc2)cc1 (some centres undefined)	11.7 µM
Cc1cccc(-n2c(C)c(C)c3c(N)ncnc32)c1	> 35 µM (inactive)
Cc1ccc(C(=O)c2sc3nc4c(cc3c2N)CCC4)cc1	11.3 µM
CCC(C)c1ccccc1OCCCN(C)Cc1ccccc1 (centres undefined)	9.93 µM
NC(c1csc(Nc2ccc(C(F)(F)F)cn2)n1)C1CCCCC1 (centres undefined)	5.02 µM

Structure (SMILES)	AC40
O=C(NN=Cc1ccccc1Cl)c1cccc2ccccc12	7.18 µM
COC(=O)C1=C(C)N(Cc2ccc(C(F)(F)F)cc2)C(=NCc2ccccc2)NC1c1ccc(Cl)cc1 (centres undefined)	10.8 µM
OC(CNCCC1C=Nc2ccccc21)Cn1c2ccc(Cl)cc2c2cc(Cl)ccc21 (centres undefined)	9.56 µM
O=C(Nc1ccc(C(F)(F)F)cc1)N1C[C@@H]2N[C@H](C1)C2c1ccc(/C=C/c2ccccc2)cc1 (some centres undefined)	5.24 µM and 0.87 µM
O=c1c2ccccc2nc(-c2ccco2)n1/N=C/c1ccccc1O	11.7 µM
CN(Cc1ccccc1)C(=S)NC(=O)c1ccc(-c2ccccc2)cc1	24 µM
CC1(C(=O)NS(=O)(=O)c2ccccc2Cl)CCN1C(=O)C1(c2ccccc2)CCCC1 (centres undefined)	23.4 µM
Cc1ccc(S(=O)(=O)N2C[C@@H]3N[C@H](C2)C3c2ccc(/C=C/c3ccccc3)cc2)cc1 (some centres undefined)	4.56 µM
COc1ccc(-n2sc3ccccc3c2=O)cc1	0.759 µM
O=C(CC1c2ccccc2Oc2ccccc21)Nc1ccccc1C(F)(F)F	5.33 µM
Cc1ccc(Oc2ncc(-c3ccc(Cl)cc3)cn2)cc1	4.48 µM
Cc1cc(OCCCN2CCC(C(O)(c3ccccc3)c3ccccc3)CC2)ccc1Br	3.84 µM
C/C=C/c1ccc(C2[C@H]3CNC[C@@H]2N3Cc2cc(-c3ccccc3)on2)cc1 (some centres undefined)	6.73 µM
O=c1[nH][nH]c2c1C(c1ccc(Cl)c(Cl)c1)OC(CCc1ccccc1)C2 (centres undefined)	19.2 µM
CC(C)(C)c1cc(NCCCn2ccnc2)n2ncc(-c3ccc(Cl)cc3)c2n1	4.39 µM
C/C=C/c1ccc(C2[C@@H]3CN(C(=O)Nc4ccc(C(F)(F)F)cc4)C[C@H]2N3)cc1 (some centres undefined)	5.83 µM
CCCNC(=O)c1nnsc1S(=O)(=O)c1ccc(Cl)cc1	1.15 µM
COc1ccc(C)c2sc(N(CCCN(C)C)C(=O)c3ccc(S(=O)(=O)N4CCc5ccccc5C4)cc3)nc12	3.62 µM
CCCCCCN1C[C@H](n2cc(C3CC3)nn2)[C@@H](O)C[C@@H]1c1ccc(C)cc1	5.22 µM
COc1nc(-c2ccc(Cl)cc2)ccc1-c1noc(-c2ccco2)n1	16 µM
Nc1nc(N)c2cc(Sc3ccc(Cl)cc3)ccc2n1	9.55 µM
N#Cc1sc2nc(N3CCCCC3)c3c(c2c1N)CCCC3	21.2 µM

Structure (SMILES)	AC40
CC(C)CC#Cc1ccc2c(c1)O[C@H](CN(C)C(=O)C1CCCCC1)[C@@H](C)CN([C@@H](C)CO)S2(=O)=O	15.8 µM
CCOC(=O)c1ccccc1NC(=O)c1n[nH]c(=O)c2ccccc12	3.05 µM
O=C1N/C(=N\N=C\c2cccs2)SC1Cc1cccc(Cl)c1 (centres undefined)	5.93 µM
CNc1nc(-c2ccccc2)[n+](-c2ccc(C)cc2)s1	0.858 µM
CCCCCCn1c(N(CC)CC)nc2c1c(=O)[nH]c(=O)n2C	30.8 µM
CC(C)CC#Cc1ccc2c(c1)O[C@@H](CN(C)Cc1ccccc1)[C@H](C)CN([C@H](C)CO)S2(=O)=O	8.93 µM
COc1ccc(C(=O)NC(=S)Nc2ccc3c4c(cccc24)CC3)cc1OC	6.85 µM
Cc1nnn(-c2nonc2N)c1C(=O)N/N=C/c1cccc2ccccc12	6.5 µM
COc1ccc(OC)c(NC(=O)c2cc3c(Cl)nc4ccccc4c3s2)c1	6.97 µM
CC(=O)C1=C(S(=O)(=O)c2ccc(C)cc2)CS(=O)(=O)C1	0.613 µM
CN1CCN(CC(O)COC(c2ccc(Cl)cc2)c2ccc(Cl)cc2)CC1 (centres undefined)	13.3 µM
CC(C)(C)C1CCc2c(sc(NC(=O)c3cccs3)c2C(N)=O)C1 (centres undefined)	16.5 µM
COc1cc2nc(N3CCN(c4cc(C)ccc4C)CC3)nc(N)c2cc1OC	8.68 µM
Cc1cccc(OCC(=O)Nc2ccc(NC(=O)c3ccco3)cc2)c1	12.4 µM
OC[C@@H]1[C@@H](c2ccc(C#CC3CCCC3)cc2)[C@H]2CN(CCC(F)(F)F)CCCCN12	6.32 µM
C=CCn1c(SCc2ccccc2)nc2c1c(=O)[nH]c(=O)n2C	21.2 µM
O=C(Cn1cnc2c(OCc3ccccc3)ncnc21)NCc1ccccn1	31.1 µM
OC(CNCCc1ccc(C(F)(F)F)cc1)COc1cccc2ccccc12 (centres undefined)	4.92 µM
CCCNC(=O)Cn1sc2nc(C)cc(C)c2c1=O	2.31 µM
COc1cc2c3nnc(-c4ccccc4)c-3cn(Cc3ccccc3F)c2cc1OC	15.6 µM
Cc1ccc2oc(-c3ccc(NC(=O)c4ccc5c(c4)OCO5)cc3)nc2c1	1.1 µM
COc1cccc(OCc2nc3c4cnn(-c5ccccc5)c4ncn3n2)c1	6.42 µM

Structure (SMILES)	AC40
Cc1cccc(-c2ccc(C3[C@@H]4CN(C(=O)Nc5ccc(C(F)(F)F)cc5)C[C@H]3N4)cc2)c1 (some centres undefined)	1.7 µM
CCCCCCN1C[C@H](n2cc(COC(=O)c3ccccc3)nn2)[C@@H](O)C[C@@H]1c1ccc(C)cc1	8.37 µM
N#Cc1cccc(-c2ccc(C3[C@H]4CNC[C@@H]3N4Cc3cc(-c4ccccc4)on3)cc2)c1 (some centres undefined)	9.78 µM
COC(=O)Cn1cc(C#N)c2ccccc21	> 35 µM (inactive)
CC(C)Sc1nc2c(c(=O)[nH]c(=O)n2C)n1Cc1ccc(Cl)cc1	14 µM
CC(C)(C)S(=O)N1Cc2cc(C(=O)Nc3ccc(-c4ccccc4)cc3)nc(-c3cccc(-c4cccc(F)c4)c3)c2[C@@H]1CCO (some centres undefined)	13.4 µM
O=C(Nc1ccccc1)c1nnsc1S(=O)(=O)c1ccc(Cl)cc1	0.403 µM
CC(C)C(Cl)=NOC(=O)Nc1ccc(S(N)(=O)=O)cc1	4.58 µM
Cc1cc(OCC(O)CNC(C)c2ccccc2)ccc1C(C)C (centres undefined)	9.73 µM
CN(Cc1c(C(=O)N/N=C/c2ccccc2O)nnn1-c1nonc1N)C1CCCCC1	5.83 µM
CNC[C@H](CC1CCCCC1)NC[C@H](Cc1ccccc1)NCCC12CC3CC(CC(C3)C1)C2	4.43 µM
Cc1ccc2oc(-c3cccc(NC(=O)Cc4cccs4)c3)nc2c1	2.42 µM
CCN(CC)c1ccc(N=Cc2c(O)n(Cc3ccccc3)c(=O)[nH]c2=O)cc1	7.08 µM
O=c1[nH]cnc2nc(-c3ccc(N(CCCl)CCCl)cc3)[nH]c12	4.26 µM
O=C(NCc1ccccn1)c1coc(=O)c(Br)c1	1.59 µM
COc1ccccc1C(=O)NC(=S)Nc1ccc2[nH]c(=O)[nH]c2c1	8.24 µM
O=C(Nc1ccc(C(F)(F)F)cc1)N1[C@@H]2CNC[C@H]1C2c1ccc(/C=C/c2ccccc2)cc1 (some centres undefined)	7.54 µM
CCCc1cc(-c2nc(-c3ccc(C)cc3)cs2)ccn1	7.92 µM
NCCCNC(=S)NCCCN(Cc1ccc(Cl)cc1)c1ccc(Br)cn1	23.4 µM
O=C(Nc1nc2ccccc2n1Cc1ccc(Cl)cc1)c1ccco1	6.72 µM
COc1ccc(-c2ccc(-c3noc(-c4ccco4)n3)c(OC)n2)cc1	5.41 µM
